Experimental data from patent publication US11224601B1, “Compounds that inhibits MCL-1 protein” (priority 2017, dated 2022).

These molecules were tested on OPM-2 human multiple myeloma cell line (assay: Cell Viability Assay (OPM-2 10 FBS), CellTiter-Glo). Settings: Homo sapiens, OPM-2, 16 h, read-out: OPM-2 10% FBS IC50 IP (μM), OPM-2 cells, 10% FBS, 16 h, CellTiter-Glo.
Type: cell-based
Method: Cell Viability Assay (OPM-2 10 FBS)
The human multiple myeloma cell line, OPM-2, was cultured in complete growth medium containing RPMI 1640 and 10% fetal bovine serum (FBS). Cells were seeded into 384-well plates at 3000 cells/well density in complete growth medium containing 10% FBS, and incubated for 16 h with serially diluted test compounds in a 37° C. incubator with 5% CO2. Cell viability was tested using CellTiter-Glo® assay (Promega, Madison, Wis.) according to the manufacturer recommendations. Luminescence was determined using an EnVision® Multilabel plate reader 25 min after the addition of detection reagent. IC50 values were then calculated with Xlfit using a logistical 4-parameter fit model in GraphPad Prism (GraphPad Software, San Diego, Calif.) or in Genedata Screener® (Genedata, Basel, Switzerland).

Question: With `CO[C@@]1(CN2CCN3CCC(F)(F)CC3C2)/C=C/C[C@H](C)[C@@H](C)S(=O)(=O)NC(=O)c2ccc3c(c2)N(C[C@@H]2CC[C@H]21)C[C@@]1(CCCc2cc(Cl)ccc21)CO3` (mixture of isomers) [Example 273] as the molecule, how does the IC50 read?
Answer: 0.501 µM

Question: With `CO[C@]1(CN2CC[C@@H]3CCCC[C@H]3C2)/C=C/C[C@H](C)[C@@H](C)S(=O)(=O)NC(=O)c2ccc3c(c2)N(C[C@@H]2CC[C@H]21)C[C@@]1(CCCc2cc(Cl)ccc21)CO3` (single isomer, unassigned) [Example 90] as the molecule, how does the IC50 read?
Answer: 8.98 µM

Question: `C[C@@H]1[C@@H](C)C/C=C/[C@]2(CN3CCN(C)C[C@@H]3CO2)[C@@H]2CC[C@H]2CN2C[C@@]3(CCCc4cc(Cl)ccc43)COc3ccc(cc32)C(=O)NS1(=O)=O` (single isomer, unassigned) [Example 132] was tested. Which IC50 did it give?
Answer: 0.263 µM

Question: For `CO[C@]1(CN2CCN3CCN(S(C)(=O)=O)C[C@@H]3C2)/C=C/C[C@H](C)[C@@H](C)S(=O)(=O)NC(=O)c2ccc3c(c2)N(C[C@@H]2CC[C@H]21)C[C@@]1(CCCc2cc(Cl)ccc21)CO3` (single isomer, unassigned) [Example 237], which IC50 is on record?
Answer: 0.064 µM

Question: With `CO[C@@]1(CN2CCN([C@@H]3CCOC3)CC2)/C=C/C[C@H](C)[C@@H](C)S(=O)(=O)NC(=O)c2ccc3c(c2)N(C[C@@H]2CC[C@H]21)C[C@@]1(CCCc2cc(Cl)ccc21)CO3` (single isomer, unassigned) [Example 286] as the molecule, how does the IC50 read?
Answer: 0.05 µM

Question: `CO[C@@]1(CN2CCN3CCC(F)(F)C[C@@H]3C2)/C=C/C[C@H](C)[C@@H](C)S(=O)(=O)NC(=O)c2ccc3c(c2)N(C[C@@H]2CC[C@H]21)C[C@@]1(CCCc2cc(Cl)ccc21)CO3` (single isomer, unassigned) [Example 288] was tested. Which IC50 did it give?
Answer: 0.652 µM

Question: With `CO[C@@]1(CN2CCN3CCC(F)(F)C[C@H]3C2)/C=C/C[C@H](C)[C@@H](C)S(=O)(=O)NC(=O)c2ccc3c(c2)N(C[C@@H]2CC[C@H]21)C[C@@]1(CCCc2cc(Cl)ccc21)CO3` (single isomer, unassigned) [Example 289] as the molecule, how does the IC50 read?
Answer: 0.131 µM

Question: How did the IC50 turn out when `CO[C@@]1(CN2CCN3CCN(C(=O)CCS(=O)(=O)c4ccccc4)C[C@H]3C2)/C=C/C[C@H](C)[C@@H](C)S(=O)(=O)NC(=O)c2ccc3c(c2)N(C[C@@H]2CC[C@H]21)C[C@@]1(CCCc2cc(Cl)ccc21)CO3` (single isomer, unassigned) [Example 295] was run?
Answer: 0.104 µM

Question: With `CO[C@]1(CN2CCN3CCC(F)(F)C[C@H]3C2)/C=C/C[C@H](C)[C@@H](C)S(=O)(=O)NC(=O)c2ccc3c(c2)N(C[C@@H]2CC[C@H]21)C[C@@]1(CCCc2cc(Cl)ccc21)CO3` (single isomer, unassigned) [Example 299] as the molecule, how does the IC50 read?
Answer: 0.456 µM

Question: For `CO[C@]1(CN2CC[C@H]3CCCC[C@@H]3C2)/C=C/C[C@H](C)[C@@H](C)S(=O)(=O)NC(=O)c2ccc3c(c2)N(C[C@@H]2CC[C@H]21)C[C@@]1(CCCc2cc(Cl)ccc21)CO3` (stereo in doubt) [Example 86], which IC50 is on record?
Answer: 7.95 µM

Question: With `CO[C@@]1(CN2CCN3CCN(C)C[C@@H]3C2)/C=C/C[C@H](C)[C@@H](C)S(=O)(=O)NC(=O)c2ccc3c(c2)N(C[C@@H]2CC[C@H]21)C[C@@]1(CCCc2cc(Cl)ccc21)CO3` (stereo in doubt) [Example 210] as the molecule, how does the IC50 read?
Answer: 0.185 µM

Question: How did the IC50 turn out when `CO[C@]1(CN2CCN3CCN(S(C)(=O)=O)C[C@@H]3C2)/C=C/C[C@H](C)[C@@H](C)S(=O)(=O)NC(=O)c2ccc3c(c2)N(C[C@@H]2CC[C@H]21)C[C@@]1(CCCc2cc(Cl)ccc21)CO3` (stereo in doubt) [Example 227] was run?
Answer: 0.131 µM

Question: `C=CC(=O)N1CCN2CCN(C[C@]3(OC)/C=C/C[C@H](C)[C@@H](C)S(=O)(=O)NC(=O)c4ccc5c(c4)N(C[C@@H]4CC[C@H]43)C[C@@]3(CCCc4cc(Cl)ccc43)CO5)C[C@H]2C1` (stereo in doubt) [Example 234] was tested. Which IC50 did it give?
Answer: 0.071 µM

Question: With `CO[C@]1(CN2CCN3CCC(F)(F)C[C@@H]3C2)/C=C/C[C@H](C)[C@@H](C)S(=O)(=O)NC(=O)c2ccc3c(c2)N(C[C@@H]2CC[C@H]21)C[C@@]1(CCCc2cc(Cl)ccc21)CO3` (stereo in doubt) [Example 292] as the molecule, how does the IC50 read?
Answer: 0.399 µM

Question: Which IC50 does the source give for `CO[C@@]1(CN2CCCN(C(C)C)CC2)/C=C/C[C@H](C)[C@@H](C)S(=O)(=O)NC(=O)c2ccc3c(c2)N(C[C@@H]2CC[C@H]21)C[C@@]1(CCCc2cc(Cl)ccc21)CO3` (stereo in doubt) [Example 331] here?
Answer: 0.23 µM

Question: For `C[C@@H]1[C@@H](C)CCC[C@@](O)(CN2CCN3CCOC[C@@H]3C2)[C@@H]2CC[C@H]2CN2C[C@@]3(CCCc4cc(Cl)ccc43)COc3ccc(cc32)C(=O)NS1(=O)=O` [Example 7, (1S,3′R,6′R,7′S,11′S,12′R)-6-chloro-7′-((9aS)-hexahydropyrazino[2,1-c][1,4]oxazin-8(1H)-ylmethyl)-7′-hydroxy-11′,12′-dimethyl-3,4-dihydro-2H,15′H-spiro[naphthalene-1,22′-[20]oxa[13]thia[1,14]diazatetracyclo[14.7.2.0˜3,6˜.0˜19,24˜]pentacosa[16,18,24]trien]-15′-one 13′,13′-dioxide], which IC50 is on record?
Answer: 0.025 µM

Question: With `CO[C@]1(CN2CCN(C(C)C)[C@H](C)C2)/C=C/C[C@H](C)[C@@H](C)S(=O)(=O)NC(=O)c2ccc3c(c2)N(C[C@@H]2CC[C@H]21)C[C@@]1(CCCc2cc(Cl)ccc21)CO3` [Example 8, (1S,3′R,6′R,7′R,8′E,11′S,12′R)-6-chloro-7′-methoxy-11′,12′-dimethyl-7′-(((3R)-3-methyl-4-(1-methylethyl)-1-piperazinyl)methyl)-3,4-dihydro-2H,15′H-spiro[naphthalene-1,22′-[20]oxa[13]thia[1,14]diazatetracyclo[14.7.2.0˜3,6˜.0˜19,24˜]pentacosa[8,16,18,24]tetraen]-15′-one 13′,13′-dioxide] as the molecule, how does the IC50 read?
Answer: 0.025 µM

Question: How did the IC50 turn out when `CO[C@]1(CN2CCN3CCCC[C@@H]3C2)/C=C/C[C@H](C)[C@@H](C)S(=O)(=O)NC(=O)c2ccc3c(c2)N(C[C@@H]2CC[C@H]21)C[C@@]1(CCCc2cc(Cl)ccc21)CO3` [Example 10, (1S,3′R,6′R,7′R,8′E,11′S,12′R)-6-chloro-7′-methoxy-11′,12′-dimethyl-7′-((9aR)-octahydro-2H-pyrido[1,2-a]pyrazin-2-ylmethyl)-3,4-dihydro-2H,15′H-spiro[naphthalene-1,22′-[20]oxa[13]thia[1,14]diazatetracyclo [14.7.2.0˜3,6˜.0˜19,24˜]pentacosa[8,16,18,24]tetraen]-15′-one 13′,13′-dioxide] was run?
Answer: 0.075 µM

Question: For `CO[C@]1(CN2CCN3CCC[C@@H]3C2)/C=C/C[C@H](C)[C@@H](C)S(=O)(=O)NC(=O)c2ccc3c(c2)N(C[C@@H]2CC[C@H]21)C[C@@]1(CCCc2cc(Cl)ccc21)CO3` [Example 83], which IC50 is on record?
Answer: 0.245 µM

Question: Which IC50 does the source give for `CCCO[C@]1(CN2CCN3CCCC[C@@H]3C2)/C=C/C[C@H](C)[C@@H](C)S(=O)(=O)NC(=O)c2ccc3c(c2)N(C[C@@H]2CC[C@H]21)C[C@@]1(CCCc2cc(Cl)ccc21)CO3` [Example 353, (1S,3′R,6′R,7′R,8′E,11′S,12′R)-6-chloro-11′,12′-dimethyl-7′-((9aR)-octahydro-2H-pyrido[1,2-a]pyrazin-2-ylmethyl)-7′-propoxy-3,4-dihydro-2H,15′H-spiro[naphthalene-1,22′-[20]oxa[13]thia[1,14]diazatetracyclo [14.7.2.0~3,6~.0~19,24~]pentacosa[8,16,18,24]tetraen]-15′-one 13′,13′-dioxide] here?
Answer: 0.186 µM

Same assay, conditions: read-out: OPM-2 10% FBS IC50 IP; OPM-2 cells, 10% FBS, 16 h, CellTiter-Glo

Question: For `CO[C@]1(CN2CC[C@H]3CCCC[C@@H]3C2)/C=C/C[C@H](C)[C@@H](C)S(=O)(=O)NC(=O)c2ccc3c(c2)N(C[C@@H]2CC[C@H]21)C[C@@]1(CCCc2cc(Cl)ccc21)CO3` (single isomer, unassigned) [Example 89], which IC50 is on record?
Answer: 8.21 µM

Question: With `CO[C@]1(CN2CCN3CCS(=O)(=O)C[C@@H]3C2)/C=C/C[C@H](C)[C@@H](C)S(=O)(=O)NC(=O)c2ccc3c(c2)N(C[C@@H]2CC[C@H]21)C[C@@]1(CCCc2cc(Cl)ccc21)CO3` (single isomer, unassigned) [Example 220] as the molecule, how does the IC50 read?
Answer: 0.042 µM

Question: For `CO[C@]1(CN2CCN3CCS(=O)(=O)C[C@@H]3C2)/C=C/C[C@H](C)[C@@H](C)S(=O)(=O)NC(=O)c2ccc3c(c2)N(C[C@@H]2CC[C@H]21)C[C@@]1(CCCc2cc(Cl)ccc21)CO3` (single isomer, unassigned) [Example 221], which IC50 is on record?
Answer: 0.12 µM

Question: Which IC50 does the source give for `CO[C@@]1(CN2CCN3CCS(=O)(=O)C[C@@H]3C2)/C=C/C[C@H](C)[C@@H](C)S(=O)(=O)NC(=O)c2ccc3c(c2)N(C[C@@H]2CC[C@H]21)C[C@@]1(CCCc2cc(Cl)ccc21)CO3` (single isomer, unassigned) [Example 231] here?
Answer: 0.098 µM

Question: How did the IC50 turn out when `CO[C@@]1(CN2CCN3CCS(=O)(=O)C[C@@H]3C2)/C=C/C[C@H](C)[C@@H](C)S(=O)(=O)NC(=O)c2ccc3c(c2)N(C[C@@H]2CC[C@H]21)C[C@@]1(CCCc2cc(Cl)ccc21)CO3` (single isomer, unassigned) [Example 232] was run?
Answer: 0.2 µM

Question: `CO[C@]1(CN2CCN3CCN(S(C)(=O)=O)C[C@@H]3C2)/C=C/C[C@H](C)[C@@H](C)S(=O)(=O)NC(=O)c2ccc3c(c2)N(C[C@@H]2CC[C@H]21)C[C@@]1(CCCc2cc(Cl)ccc21)CO3` (single isomer, unassigned) [Example 238] was tested. Which IC50 did it give?
Answer: 0.076 µM

Question: With `CO[C@@]1(CN2CCN3CCN(C(=O)CCS(=O)(=O)c4ccccc4)C[C@@H]3C2)/C=C/C[C@H](C)[C@@H](C)S(=O)(=O)NC(=O)c2ccc3c(c2)N(C[C@@H]2CC[C@H]21)C[C@@]1(CCCc2cc(Cl)ccc21)CO3` (single isomer, unassigned) [Example 294] as the molecule, how does the IC50 read?
Answer: 0.687 µM

Question: For `CO[C@@]1(CN2CCN3CCN(C(=O)CCS(=O)(=O)c4ccccc4)C[C@@H]3C2)/C=C/C[C@H](C)[C@@H](C)S(=O)(=O)NC(=O)c2ccc3c(c2)N(C[C@@H]2CC[C@H]21)C[C@@]1(CCCc2cc(Cl)ccc21)CO3` (stereo in doubt) [Example 233], which IC50 is on record?
Answer: 0.202 µM
